Structures can show the parent of a compound that is named as a salt. Where two headings read alike, the source gives them in different places.
Legend:
beta-secretase = beta-secretase (Mus musculus (Mouse), UniProt P56818); assay: In Vivo Inhibition of Beta-Secretase in PDAPP mice
[1] = molecular target: native endogenous human BACE1 (Homo sapiens (Human), UniProt P56817); assay: HEK293Swe Whole Cell Assay (Abeta lowering, ELISA); type: cell-based; conditions: HEK293/APP751sw cells, Mean ± SEM
human BACE1 (1-460):Fc = human BACE1 (1-460):Fc (Homo sapiens (Human), UniProt P56817); assay: BACE1 FRET Assay; type: biochemical; conditions: Mean ± SEM; purified recombinant huBACE1:Fc, FRET substrate, pH 4.6
Sequence of human BACE1 (1-460):Fc (P56817 22-460): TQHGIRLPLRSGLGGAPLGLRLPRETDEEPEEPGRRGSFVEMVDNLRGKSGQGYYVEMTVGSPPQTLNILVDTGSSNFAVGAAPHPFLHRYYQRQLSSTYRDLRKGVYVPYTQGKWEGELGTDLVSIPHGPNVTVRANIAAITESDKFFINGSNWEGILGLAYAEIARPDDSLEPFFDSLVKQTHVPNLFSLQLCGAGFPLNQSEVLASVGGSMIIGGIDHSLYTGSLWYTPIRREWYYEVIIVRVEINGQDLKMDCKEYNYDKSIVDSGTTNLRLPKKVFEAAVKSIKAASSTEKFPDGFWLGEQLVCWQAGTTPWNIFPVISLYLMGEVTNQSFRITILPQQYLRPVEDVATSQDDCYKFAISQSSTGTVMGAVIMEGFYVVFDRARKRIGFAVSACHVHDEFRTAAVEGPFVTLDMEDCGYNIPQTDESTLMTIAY

[2] = molecular target: native, endogenous murine BACE1 (Mus musculus (Mouse), UniProt P56818); assay: PDAPP Primary Neuronal Assay (Abeta lowering, ELISA); type: cell-based; conditions: primary cortical neurons from PDAPP embryos, 24 h, Mean ± SEM
Sequence of native, endogenous murine BACE1 (P56818 46-501): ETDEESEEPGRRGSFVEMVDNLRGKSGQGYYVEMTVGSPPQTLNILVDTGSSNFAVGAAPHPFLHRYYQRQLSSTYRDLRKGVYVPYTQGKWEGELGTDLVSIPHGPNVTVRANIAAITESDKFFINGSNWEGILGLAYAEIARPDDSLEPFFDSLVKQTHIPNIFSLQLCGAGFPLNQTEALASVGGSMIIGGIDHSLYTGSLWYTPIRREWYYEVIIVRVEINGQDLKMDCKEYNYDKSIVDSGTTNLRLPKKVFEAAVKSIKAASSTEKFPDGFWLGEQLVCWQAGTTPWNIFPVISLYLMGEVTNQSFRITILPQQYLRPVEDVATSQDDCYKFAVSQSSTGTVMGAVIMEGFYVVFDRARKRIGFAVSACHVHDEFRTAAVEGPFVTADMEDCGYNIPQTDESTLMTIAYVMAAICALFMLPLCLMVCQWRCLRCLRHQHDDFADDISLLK

[3] = 10 mg/kg oral dose, 3 hours after administration, compared to vehicle-treated mice
[4] = 30 mg/kg oral dose, 3 hours after administration, compared to vehicle-treated mice
[5] = 10 mg/kg oral dose, 3 hours after administration, CSF
[6] = 10 mg/kg oral dose, 3 hours, young female PDAPP mice, compared to vehicle-treated mice
[7] = Abeta 1-40 in conditioned media, read-out: HEK 293 Swe A-beta (1-40) ELISA IC50
[8] = Abeta 1-40, read-out: PDAPP Neuron A-beta (1-40) ELISA IC50
[9] = Abeta 1-42, read-out: PDAPP Neuron A-beta (1-42) ELISA IC50

Sequence of native endogenous human BACE1 (P56817 46-501): as the sequence (P56818 46-501) above, with S6P, I162V, I165L, T180S, A182V, V340I, A393L, H443Q counted along it
Sequence of beta-secretase (P56818 46-501): as the sequence (P56818 46-501) above

Compound	Abeta 1-x peptide levels reduced in brain cortex (beta-secretase; [3])	Abeta 1-x peptide levels reduced in brain hippocampus (beta-secretase; [3])	Abeta 1-x peptide levels reduced in brain cortex (beta-secretase; [4]) [%]	Abeta 1-x peptide levels reduced in brain hippocampus (beta-secretase; [4]) [%]	CSF Abeta 1-x levels reduced (beta-secretase; [5])	Reduction of CSF sAPPbeta (beta-secretase; [5]) [%]	C99 levels reduced in brain cortex (beta-secretase; [6]) [%]	C99 levels reduced in brain hippocampus (beta-secretase; [6]) [%]	sAPPb levels reduced in brain cortex (beta-secretase; [6]) [%]	sAPPb levels reduced in brain hippocampus (beta-secretase; [6]) [%]	IC50 [1, 7] [µM]	IC50 (human BACE1 (1-460):Fc) [µM]	IC50 [2, 8] [µM]	IC50 [2, 9] [µM]	IC50 ([1]; Abeta 1-42 in conditioned media, read-out: HEK 293 Swe A-beta (1-42) ELISA IC50) [µM]
Cl.N#Cc1ccc([C@]23CN(c4ncc(F)cn4)C[C@H]2CSC(N)=N3)s1 [Example 31, 5-[(4aR,7aR)-2-Amino-6-(5-fluoropyrimidin-2-yl)-4a,5,6,7-tetrahydropyrrolo[3,4-d][1,3]thiazin-7a(4H)-yl]thiophene-2-carbonitrile hydrochloride]	approximately 23%	approximately 18%	~63	~51	–	–	–	–	–	–	–	–	–	–	–
Cl.NC1=N[C@@]2(c3ccccc3)CN(c3ncc(F)cn3)C[C@H]2CS1 [Example 1, (4aR,7aS)-6-(5-Fluoropyrimidin-2-yl)-7a-phenyl-4,4a,5,7-tetrahydropyrrolo[3,4-d][1,3]thiazin-2-amine hydrochloride]	approximately 62%	approximately 51%	–	–	approximately 80%	22	~63	~58	~34	~37	0.233	0.0644	0.116	0.103	–
NC1=N[C@@]2(c3ccc(F)s3)CN(c3ncc(F)cn3)C[C@H]2CS1 [Example 32, [(4aR,7aR)-6-(5-Fluoropyrimidin-2-yl)-7a-(5-fluorothiophen-2-yl)-4,4a,5,6,7,7a-hexahydropyrrolo[3,4-d][1,3]thiazin-2-amine hydrochloride]	–	–	–	–	–	–	–	–	–	–	0.345	0.0912	0.378	0.245	0.356
NC1=N[C@@]2(c3ccc(F)s3)CN(c3ncccn3)C[C@H]2CS1 [Example 30, [(4aR,7aR)-7a-(5-Fluorothiophen-2-yl)-6-(pyrimidin-2-yl)-4,4a,5,6,7,7a-hexahydropyrrolo[3,4-d][1,3]thiazin-2-amine hydrochloride]	–	–	–	–	–	–	–	–	–	–	–	0.166	–	–	–

— patent US8772282B2, “Tetrahydropyrrolothiazine compounds” (Eli Lilly and Company, priority 2012, dated 2014)
